Measurements taken from US12343350B2, “Istaroxime-containing intravenous formulation for the treatment of acute heart failure (AHF)” (Windtree Therapeutics, Inc., priority 2019, dated 2025).
Marks after values point to notes of the source that are not given here.

How the values were obtained:
[1] = test system: mouse (Albino Swiss CD-1); test: Acute toxicity (LD50) in mouse; format: in vivo; details: single administration
Protocol: Acute toxicity has been determined in the mouse (Albino Swiss CD-1, body weight 30 g). Mice were orally treated, or intravenously injected, with single administration of increasing doses of the test substance to identify the dose causing 50% mortality. Mortality occurred within 30 min after the administration and survival after 24 h. The acute toxicity (LD50) was then assessed.
The acute toxicity of the tested compound PST 3093 was determined in the mouse (Albino Swiss CD-1, body weight 30 g). Compound PST 3093 was orally administered or intravenously injected at increasing doses to identify the dose causing 50% mortality. Mortality occurred within 30 min after the administration and survival after 24 h.

STZ diabetic rats = test: Haemodynamics in streptozotocin (STZ) diabetic rats (echocardiography 2M-Doppler-Tissue Doppler); format: in vivo, rat
Protocol: Sprague Dawley male rats (150-175 g) were made diabetic by a single injection into the tail vein of a solution of streptozotocin (STZ, 50 mg/kg, Sigma-Aldrich), freshly prepared in 0.1 M sodium citrate buffer, pH 4.5. Control rats received citrate buffer. Fasting glycaemia was measured after 1 week and rats with values greater than 400 mg/dl were considered diabetic.
Eight to nine weeks after STZ injection, rats were submitted to transthoracic echocardiographic and Doppler evaluation performed under pentobarbital anesthesia. Two-dimensionally guided M-mode recordings were used to obtain short-axis measurements of left ventricular end-diastolic diameter (LVEDD), left ventricular end-systolic diameter (LVESD), posterior (PW) and septal (SW) diastolic wall thickness according to the American Society of Echocardiography guidelines (Lang R M et al., Eur J Echocardiography 2006; 7:79-108). Fractional shortening was calculated as FS=(LVEDD-LVESD)/LVEDD. Relative wall thickness was calculated as PWTd+IVSTd/LVEDD.
Mitral inflow was measured by pulsed Doppler at the tips of mitral leaflets from an apical 4-chamber view to obtain early and late filling velocities (E, A) and deceleration time of early filling velocity (DT). The deceleration slope was calculated as E/DT ratio. The mitral deceleration index was calculated as DT/E ratio.
Tissue Doppler Imaging (TDI) was evaluated from the apical 4-chamber view to record septal mitral annular movements, i.e., peak myocardial systolic (s′) and early and late diastolic velocity (e′ and a′).
The compound PST 3093 was iv administered to STZ injected rats at the dose of 0.22 mg/kg and echocardiographic parameters were measured after 15 and 30 min from the beginning of iv infusion and 10 min after interruption of infusion.

[2] = after 10 min from STOP infusion

C[C@]12CCC(=NOCC(=O)O)CC1[C@H](O)CC1C2CC[C@]2(C)C(=O)CCC12 (stereo partly drawn) [PST 3093, (E,Z)-[(6-beta-hydroxy-17-oxoandrostan-3-ylidene)amino]oxyacetic acid]
LD50 ([1]; i.v.): >250 mg/kg
LD50 ([1]; os (oral)): >200 mg/kg
CO, cardiac output (STZ diabetic rats; 0.22 mg/kg iv, after 15 min): 231.7 ± 64 mL/min
DT, deceleration time of E wave (STZ diabetic rats; 0.22 mg/kg iv, after 15 min): 40.2 ± 9.54 ms
DT/E, mitral deceleration index (STZ diabetic rats; 0.22 mg/kg iv, after 15 min): 40.39 ± 15.04* s^2/m
E, E wave, early filling velocity of mitral inflow (STZ diabetic rats; 0.22 mg/kg iv, after 15 min): 1.048 ± 0.218
E/DT, decelaration slope (STZ diabetic rats; 0.22 mg/kg iv, after 15 min): 27.51 ± 8.42 m/s^2
E/e′, index of LV filling pressure (STZ diabetic rats; 0.22 mg/kg iv, after 15 min): 38.61 ± 4.71
HR, heart rate (STZ diabetic rats; 0.22 mg/kg iv, after 15 min): 271 ± 33 beat/min
SV, stroke volume (STZ diabetic rats; 0.22 mg/kg iv, after 15 min): 0.85 ± 0.18 ml/beat
e′ TDI, early relaxation velocity (STZ diabetic rats; 0.22 mg/kg iv, after 15 min): 27.01 ± 3.4 cm/s
CO, cardiac output (STZ diabetic rats; 0.22 mg/kg iv, after 30 min): 230.6 ± 46.7 mL/min
DT, deceleration time of E wave (STZ diabetic rats; 0.22 mg/kg iv, after 30 min): 36.6 ± 6.09 ms
DT/E, mitral deceleration index (STZ diabetic rats; 0.22 mg/kg iv, after 30 min): 35.47 ± 10.19* s^2/m
E, E wave, early filling velocity of mitral inflow (STZ diabetic rats; 0.22 mg/kg iv, after 30 min): 1.076 ± 0.211
E/DT, decelaration slope (STZ diabetic rats; 0.22 mg/kg iv, after 30 min): 30.36 ± 8.73 m/s^2
E/e′, index of LV filling pressure (STZ diabetic rats; 0.22 mg/kg iv, after 30 min): 38.7 ± 4.26
HR, heart rate (STZ diabetic rats; 0.22 mg/kg iv, after 30 min): 269 ± 29 beat/min
SV, stroke volume (STZ diabetic rats; 0.22 mg/kg iv, after 30 min): 0.86 ± 0.14 ml/beat
e′ TDI, early relaxation velocity (STZ diabetic rats; 0.22 mg/kg iv, after 30 min): 27.77 ± 4.27 cm/s
CO, cardiac output (STZ diabetic rats; [2]): 200.88 ± 51.7 mL/min
DT, deceleration time of E wave (STZ diabetic rats; [2]): 41.88 ± 7.86 ms
DT/E, mitral deceleration index (STZ diabetic rats; [2]): 49.08 ± 13.09* s^2/m
E, E wave, early filling velocity of mitral inflow (STZ diabetic rats; [2]): 0.89 ± 0.19
E/DT, decelaration slope (STZ diabetic rats; [2]): 22.36 ± 8.89 m/s^2
E/e′, index of LV filling pressure (STZ diabetic rats; [2]): 39.45 ± 4.18
HR, heart rate (STZ diabetic rats; [2]): 249 ± 28 beat/min
SV, stroke volume (STZ diabetic rats; [2]): 0.81 ± 0.17 ml/beat
e′ TDI, early relaxation velocity (STZ diabetic rats; [2]): 22.48 ± 3.35 cm/s
